The source of these data is patent publication US20110178142A1, “PHARMACEUTICAL COMPOSITION FOR THERAPEUTIC OR PROPHYLACTIC TREATMENT OF BACTERIAL INFECTIONS AND ASSOCIATED DISEASES” (National Institute of Immunology, priority 2008, published 2011).

Experiment [1] deals with T1, FtsZ (Escherichia coli, UniProt P0A9A6).
T1 construct: The recombinant protein is exactly same as the natural protein; made in house; host or cells: E. coli BL21
Nature of the experiment: Dilution-induced disassembly of preformed FtsZ filaments. The format is biochemical, E. coli. To be noted: 20 fold dilution, 5 min at 37° C., concentration dependent. An excerpt: (§1) FtsZ was over-expressed and purified from E. coli BL21 strain as described by Santa and Panda. (Detection of an intermediate during unfolding of bacterial cell division protein FtsZ: loss of functional properties precedes the global unfolding of FtsZ. (2003). The Journal of Biological Chemistry. 278, 21336-43). The recombinant protein is exactly same as the natural protein. For all the experimental procedures, the above expressed and purified recombinant FtsZ was used. The FtsZ concentration was measured by the Bradford method using BSA as a standard (Bradford M M. (1976) A rapid and sensitive method for the quantitation of microgram quantities of protein utilizing the principle of protein-dye binding. Analytical Biochemistry. 72, 248-54). The purified protein was frozen and stored at −80° C. Prior to use, FtsZ was thawed and centrifuged at 287,000 ×g for 30 min to remove any insoluble aggregates.
FtsZ (30 μM) was polymerized in 25 mM pipes buffer in the presence of 5 mM MgCl2, 1 mM GTP and 50 mM KCl. Preformed FtsZ polymers were diluted 20 fold in warm 25 mM pipes buffer in the absence and presence of different concentrations of Compound 1 and the mixtures were incubated for 5 min at 37° C. The polymers were then collected by centrifugation.

Experiment [2] addresses T2, FtsZ (Y371W) (Escherichia coli, UniProt P0A9A6, Y371W).
T2 sequence (P0A9A6 1-383 Y371W): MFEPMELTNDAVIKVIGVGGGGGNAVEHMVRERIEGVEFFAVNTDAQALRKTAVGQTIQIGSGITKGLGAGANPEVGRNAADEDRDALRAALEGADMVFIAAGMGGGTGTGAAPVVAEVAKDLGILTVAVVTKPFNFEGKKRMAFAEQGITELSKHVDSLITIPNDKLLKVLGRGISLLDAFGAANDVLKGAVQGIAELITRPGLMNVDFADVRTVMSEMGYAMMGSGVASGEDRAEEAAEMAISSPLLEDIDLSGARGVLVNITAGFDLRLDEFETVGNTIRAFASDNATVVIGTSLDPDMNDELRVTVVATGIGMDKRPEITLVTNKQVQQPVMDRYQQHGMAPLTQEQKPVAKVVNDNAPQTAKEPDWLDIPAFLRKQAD
Nature of the experiment: Binding to FtsZ by tryptophan fluorescence quenching, double reciprocal plot. Details: species or system E. coli. To be noted: FtsZ (Y371W) 1 μM, 25° C., read-out: dissociation constant of FtsZ-compound complex. The method, then:
(Beuria T K, Santra M K and Panda D. (2005) Sanguinarine blocks cytokinesis in bacteria by inhibiting FtsZ assembly and bundling. Biochemistry. 44, 16584-93). […] The change in the fluorescence intensity was used to calculate the dissociation constant of FtsZ-compound complex. A dissociation constant of 15±1.5 μM was determined using a double reciprocal plot of the binding data (FIG. 5B).

Experiment [3] has as its target T1, FtsZ. Nature of the experiment: GTPase activity of FtsZ (malachite green ammonium molybdate assay). It counts as biochemical, E. coli.
From the text: as §1
It was then polymerized in the presence of 10 mM magnesium and 1 mM GTP at 37° C. The GTP hydrolysis reaction was quenched at different time points by adding perchloric acid. Moles of inorganic phosphate released per mole of FtsZ were measured using the standard malachite green ammonium molybdate assay (Geladopoulos T P, Sotiroudis T G and Evangelopoulos A E. (1991). A malachite green colorimetric assay for protein phosphatase activity. Analytical Biochemistry.192,112-6;Beuria T K, Krishnakumar S S, Sahar S, Singh N, Gupta K, Meshram M and Panda D. (2003) Glutamate-induced assembly of bacterial cell division protein FtsZ. The Journal of Biological Chemistry. 278, 3735-41).

Experiment [4] concerns the target T1, FtsZ. Nature of the experiment: Sedimentation assay of FtsZ polymerization. It counts as biochemical, E. coli. To be noted: 50 μM compound; FtsZ 12 μM.
From the text: as §1, with “Prior to use, FtsZ was thawed and centrifuged at 287,000 ×g for 30 min to remove any insoluble aggregates.” left out
Then, 10 mM MgSO4 and 1 mM GTP were added to the reaction mixtures and incubated for an additional 15 min at 37° C. Polymerized FtsZ was sedimented at 287,000×g for […], and the protein concentration in the supernatant was measured (Santra M K and Panda D. (2007) Acid-induced loss of functional properties of bacterial cell division protein FtsZ: evidence for an alternative conformation at acidic pH, Proteins. 67,177-88). The protein concentration in the pellet was calculated by subtracting the protein concentration in the supernatant from the total protein concentration.

The target of experiment [5] is T1, FtsZ. Nature of the experiment: Far-UV circular dichroism of FtsZ. Details: species or system E. coli. To be noted: 0-50 μM compound; FtsZ 1 μM.
From the text: as §1
The far-UV CD spectra were recorded using a JASCO spectropolarimeter. The secondary structure was monitored over the wavelength range of 200-260 nm using a 0.1-cm path length cuvette and the ellipticity was determined at 220 nm. Each spectrum was recorded using an average of 3 scans.
(In general: Circular dichroism is widely used to follow secondary structure.)

Experiment [6] concerns the target T1, FtsZ. Nature of the experiment: Electron microscopic analysis of FtsZ assembly. The format is biochemical, E. coli.
From the text: as §1
FtsZ (12 μM) in 25 mM pipes buffer (pH 6.5) was incubated without or with different concentrations of compound for 10 min on ice. Then, 10 mM MgSO4 and 1 mM GTP were added to the reaction mixtures and incubated for an additional 15 min at 37° C. Samples were transferred onto a formvar-carbon coated copper grid, stained with 2% uranyl acetate and observed using Transmission Electron Microscope (FEI TECHNAI G^2 12) as described previously (Beuria T K, Santra M K and Panda D. (2005) Sanguinarine blocks cytokinesis in bacteria by inhibiting FtsZ assembly and bundling. Biochemistry. 44, 16584-93).
The observed difference in the thickness of the FtsZ protofilament bundles in the absence and presence of 10 and 25 μM concentration is significant at a 99.9% confidence level (p<0.001).

T1 sequence (P0A9A6 whole entry): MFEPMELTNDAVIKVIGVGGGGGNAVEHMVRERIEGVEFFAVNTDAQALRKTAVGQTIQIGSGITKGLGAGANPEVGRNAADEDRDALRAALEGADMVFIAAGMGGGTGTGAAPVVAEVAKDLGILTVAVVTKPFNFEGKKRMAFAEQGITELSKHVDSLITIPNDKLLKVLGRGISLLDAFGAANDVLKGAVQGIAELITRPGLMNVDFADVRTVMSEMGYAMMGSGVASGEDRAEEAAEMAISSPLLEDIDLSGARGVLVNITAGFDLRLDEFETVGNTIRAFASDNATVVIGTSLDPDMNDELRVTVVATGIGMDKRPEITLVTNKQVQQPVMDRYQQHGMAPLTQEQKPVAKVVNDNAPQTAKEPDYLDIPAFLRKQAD

For the compound `O=C(O)c1cccc(-c2ccc(C=C3SC(=S)N(c4cccc(C(F)(F)F)c4)C3=O)o2)c1` [the compound, 3-{5-[4-Oxo-2-thioxo-3-(3-trifluoromethyl-phenyl)-thiazolidin-5-ylidenemethyl]-furan-2-yl}-benzoic acid], the “dilution-induced disassembly of FtsZ protofilaments” value in experiment [1] is on record as “strongly prevented”. In addition, the Kd in experiment [2] is 15 ± 1.5 µM. The “rate of GTP hydrolysis at 5 min” value in experiment [3] (10 μM compound) is recorded as 2.9 phosphate release per FtsZ per min; in experiment [3] (25 μM compound) it was 1.5 phosphate release per FtsZ per min; in experiment [3] (50 μM compound), 1.3 phosphate release per FtsZ per min. Besides, the “increase of sedimentable polymeric mass of FtsZ” value in experiment [4] amounted to 25%. Besides, the “effect on secondary structure of FtsZ (far-UV CD)” value in experiment [5] is on record as “did not change the secondary structure”. Further, the “average thickness of FtsZ bundles” value worked out at 64±3 nm in experiment [6] (10 μM compound); 66±4.3 nm in experiment [6] (25 μM compound); 46±3.5 nm in experiment [6] (50 μM compound, large number of aggregates observed).
